Test results published in ChEMBL document CHEMBL4145625 (J Med Chem, 2018).

Tests used:
[1] = biological target: Phosphatidylinositol 4,5-bisphosphate 3-kinase catalytic subunit alpha isoform (Homo sapiens, UniProt P42336); test: Inhibition of PI3Kalpha (unknown origin) using PIP2 as substrate by Kinase-Glo assay
NCI-H460 = test: cells; type: functional, cell-based; details: Homo sapiens, NCI-H460, 96 h;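 also: cytotoxicity determined with an MTT assay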
Description: Cytotoxicity against human NCI-H460 cells after 96 hrs by MTT assay

Chain of Phosphatidylinositol 4,5-bisphosphate 3-kinase catalytic subunit alpha isoform (P42336 whole entry, canonical isoform): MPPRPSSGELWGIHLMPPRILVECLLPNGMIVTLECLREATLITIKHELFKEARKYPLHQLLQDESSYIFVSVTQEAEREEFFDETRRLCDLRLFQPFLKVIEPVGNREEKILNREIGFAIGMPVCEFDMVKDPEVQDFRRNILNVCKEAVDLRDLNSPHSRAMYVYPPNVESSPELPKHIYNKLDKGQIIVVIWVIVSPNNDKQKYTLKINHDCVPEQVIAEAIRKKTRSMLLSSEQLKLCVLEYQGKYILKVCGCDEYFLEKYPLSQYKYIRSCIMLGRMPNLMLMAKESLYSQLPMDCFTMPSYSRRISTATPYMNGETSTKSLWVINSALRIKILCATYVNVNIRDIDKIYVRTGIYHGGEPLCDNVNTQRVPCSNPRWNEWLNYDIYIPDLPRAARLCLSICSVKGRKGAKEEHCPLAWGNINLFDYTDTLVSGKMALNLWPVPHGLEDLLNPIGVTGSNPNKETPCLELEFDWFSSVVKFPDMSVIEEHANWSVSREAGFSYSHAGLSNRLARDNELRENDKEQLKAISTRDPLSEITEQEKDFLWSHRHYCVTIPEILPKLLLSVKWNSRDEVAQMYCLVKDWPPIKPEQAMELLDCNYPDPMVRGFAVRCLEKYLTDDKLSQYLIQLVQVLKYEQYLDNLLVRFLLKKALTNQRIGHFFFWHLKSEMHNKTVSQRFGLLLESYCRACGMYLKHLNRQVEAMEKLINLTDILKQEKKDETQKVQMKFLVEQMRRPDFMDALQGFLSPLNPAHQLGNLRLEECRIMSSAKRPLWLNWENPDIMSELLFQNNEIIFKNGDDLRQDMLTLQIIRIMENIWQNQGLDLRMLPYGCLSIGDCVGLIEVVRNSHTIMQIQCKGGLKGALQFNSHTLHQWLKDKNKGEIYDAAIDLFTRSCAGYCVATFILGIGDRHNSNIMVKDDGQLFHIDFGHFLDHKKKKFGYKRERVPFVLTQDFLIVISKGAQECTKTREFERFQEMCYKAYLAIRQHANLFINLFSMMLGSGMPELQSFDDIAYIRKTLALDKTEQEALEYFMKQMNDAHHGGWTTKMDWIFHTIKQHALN

COc1ncc(-c2cc(O[C@H]3CCOC3)c3nc(N)nc(C)c3c2)cc1NS(=O)(=O)c1ccc(F)cc1F
IC50 [1]: 0.83 nM | IC50 (NCI-H460): 94 nM

Cc1nc(N)nc2c(OC3CCOCC3)cc(-c3cnc(Cl)c(NS(=O)(=O)c4ccc(F)cc4)c3)cc12
IC50 [1]: 1.7 nM | IC50 (NCI-H460): 1200 nM

CNc1nc(C)c2cc(-c3cnc(OC)c(NS(=O)(=O)c4ccc(F)cc4F)c3)cc(OC3CCCC3)c2n1
IC50 [1]: 6.6 nM

COc1ncc(-c2cc(OC3CCOCC3)c3nc(N)nc(C)c3c2)cc1NS(=O)(=O)c1ccc(F)cc1
IC50 [1]: 1.2 nM | IC50 (NCI-H460): 96 nM

COCCOc1cc(-c2cnc(OC)c(NS(=O)(=O)c3ccc(F)cc3F)c2)cc2c(C)nc(N)nc12
IC50 (NCI-H460): 200 nM

COc1ccc(-c2cc(OC3CCOCC3)c3nc(N)nc(C)c3c2)cn1
IC50 [1]: 31 nM | IC50 (NCI-H460): 980 nM

COc1ncc(-c2cc(OC3CCN(C)CC3)c3nc(N)nc(C)c3c2)cc1NS(=O)(=O)c1ccc(F)cc1F
IC50 [1]: 4.8 nM | IC50 (NCI-H460): 660 nM

COc1ncc(-c2cc(OC3CCOCC3)c3nc(NCC4CC4)nc(C)c3c2)cc1NS(=O)(=O)c1ccc(F)cc1F
IC50 [1]: 5.4 nM | IC50 (NCI-H460): 410 nM

COc1ncc(-c2cc3c(C)nc(N)nc3n([C@H]3CC[C@H](OCCO)CC3)c2=O)cc1NS(=O)(=O)c1ccc(F)cc1F
IC50 [1]: 0.87 nM | IC50 (NCI-H460): 360 nM

COc1ncc(-c2cc(OC3CCC3)c3nc(N)nc(C)c3c2)cc1NS(=O)(=O)c1ccc(F)cc1F
IC50 [1]: 0.95 nM

COc1ncc(-c2cc(OCC3CCOCC3)c3nc(N)nc(C)c3c2)cc1NS(=O)(=O)c1ccc(F)cc1F
IC50 [1]: 0.73 nM | IC50 (NCI-H460): 21 nM

COc1ncc(-c2cc(OC3CCCCC3)c3nc(N)nc(C)c3c2)cc1NS(=O)(=O)c1ccc(F)cc1F
IC50 [1]: 0.95 nM | IC50 (NCI-H460): 96 nM

CNc1nc(C)c2cc(-c3cnc(OC)c(NS(=O)(=O)c4ccc(F)cc4F)c3)cc(O[C@H]3CCOC3)c2n1
IC50 [1]: 1.4 nM

COc1ncc(-c2cc(OC3CCC(F)(F)CC3)c3nc(N)nc(C)c3c2)cc1NS(=O)(=O)c1ccc(F)cc1F
IC50 [1]: 1.6 nM | IC50 (NCI-H460): 83 nM

COc1ncc(-c2cc(OC3CCOCC3)c3nc(N)nc(C)c3c2)cc1NS(=O)(=O)C1CC1
IC50 [1]: 2.5 nM | IC50 (NCI-H460): 930 nM

CNc1nc(C)c2cc(-c3cnc(OC)c(NS(=O)(=O)c4ccc(F)cc4F)c3)cc(OC3CCC3)c2n1
IC50 [1]: 4.1 nM

COc1ncc(-c2cc(OC3CCOCC3)c3nc(NC(C)=O)nc(C)c3c2)cc1NS(=O)(=O)c1ccc(F)cc1F
IC50 [1]: 1.4 nM | IC50 (NCI-H460): 53 nM

COc1ncc(-c2cc(OC)c3nc(N)nc(C)c3c2)cc1NS(=O)(=O)c1ccc(F)cc1F
IC50 (NCI-H460): 280 nM

COc1ncc(-c2cc(OC3CCOCC3)c3nc(NC(C)=O)nc(C)c3c2)cc1NS(C)(=O)=O
IC50 [1]: 11 nM | IC50 (NCI-H460): 3200 nM

CNc1nc(C)c2cc(-c3cnc(OC)c(NS(=O)(=O)c4ccc(F)cc4F)c3)cc(OCC3CCOC3)c2n1 (centres undefined)
IC50 [1]: 2 nM | IC50 (NCI-H460): 310 nM

COc1ncc(-c2cc(OC(C)C)c3nc(N)nc(C)c3c2)cc1NS(=O)(=O)c1ccc(F)cc1F
IC50 [1]: 0.7 nM | IC50 (NCI-H460): 140 nM

COc1ncc(-c2cc(OCC3CCCO3)c3nc(N)nc(C)c3c2)cc1NS(=O)(=O)c1ccc(F)cc1F (centres undefined)
IC50 [1]: 1.1 nM

Cc1ncc(-c2cc(OC3CCOCC3)c3nc(N)nc(C)c3c2)cc1NS(=O)(=O)c1ccc(F)cc1F
IC50 [1]: 1.4 nM | IC50 (NCI-H460): 2100 nM

CNc1nc(C)c2cc(-c3cnc(OC)c(NS(=O)(=O)c4ccc(F)cc4F)c3)cc(OCC3CCOCC3)c2n1
IC50 [1]: 1.8 nM | IC50 (NCI-H460): 400 nM

COc1ncc(-c2cc(OC3CCOCC3)c3nc(N)nc(C)c3c2)cc1NS(=O)(=O)c1ccc(F)cc1Cl
IC50 [1]: 1.1 nM | IC50 (NCI-H460): 17 nM

COc1ncc(-c2cc(OC3CCOCC3)c3nc(N)nc(C)c3c2)cc1NS(=O)(=O)c1ccc(Cl)s1
IC50 [1]: 1.1 nM

COc1ncc(-c2cc(OCCN3CCOCC3)c3nc(N)nc(C)c3c2)cc1NS(=O)(=O)c1ccc(F)cc1F
IC50 [1]: 3.3 nM | IC50 (NCI-H460): 1100 nM

CNc1nc(C)c2cc(-c3cnc(OC)c(NS(=O)(=O)c4ccc(F)cc4F)c3)cc(OC3CCCCC3)c2n1
IC50 [1]: 9.8 nM | IC50 (NCI-H460): 1700 nM

COc1ncc(-c2cc(OCC3CCOC3)c3nc(N)nc(C)c3c2)cc1NS(=O)(=O)c1ccc(F)cc1F (centres undefined)
IC50 [1]: 1.2 nM
